For one data set, the system named is rat kidney slices. Put plainly: In vitro uptake in rat kidney slices. The settings on record: for Effect on the uptake of cilastatin in rat kidney slices / Effect on the uptake of imipenem in rat kidney slices: inhibitor 200 µM; for Effect on the uptake of cilastatin in rat kidney slices: cilastatin 100 µM; for Effect on the uptake of imipenem in rat kidney slices: imipenem 100 µM; for Uptake in rat kidney slices at 37 °C compared with 4 °C: 100 µM. The data set is classed as in vitro ADME.

Data set [1] in a line: Pharmacokinetic interaction in vivo in rats. The settings on record: rat; for AUC(0-inf) / C0 / clearance / half-life: Wistar, plasma, iv; for AUC(0-inf) / C0 / clearance / half-life / Cumulative urinary excretion over 8 h, compared with alone group: 45 mg/kg; for AUC(0-inf): AUC0→∞; for clearance: CLP; for half-life: T1/2β; for Cumulative urinary excretion over 8 h, compared with alone group: with probenecid 100 mg/kg.

The target in the next data set is T1, OAT3 (Homo sapiens, UniProt Q8TCC7).
T1 sequence (Q8TCC7 1-542): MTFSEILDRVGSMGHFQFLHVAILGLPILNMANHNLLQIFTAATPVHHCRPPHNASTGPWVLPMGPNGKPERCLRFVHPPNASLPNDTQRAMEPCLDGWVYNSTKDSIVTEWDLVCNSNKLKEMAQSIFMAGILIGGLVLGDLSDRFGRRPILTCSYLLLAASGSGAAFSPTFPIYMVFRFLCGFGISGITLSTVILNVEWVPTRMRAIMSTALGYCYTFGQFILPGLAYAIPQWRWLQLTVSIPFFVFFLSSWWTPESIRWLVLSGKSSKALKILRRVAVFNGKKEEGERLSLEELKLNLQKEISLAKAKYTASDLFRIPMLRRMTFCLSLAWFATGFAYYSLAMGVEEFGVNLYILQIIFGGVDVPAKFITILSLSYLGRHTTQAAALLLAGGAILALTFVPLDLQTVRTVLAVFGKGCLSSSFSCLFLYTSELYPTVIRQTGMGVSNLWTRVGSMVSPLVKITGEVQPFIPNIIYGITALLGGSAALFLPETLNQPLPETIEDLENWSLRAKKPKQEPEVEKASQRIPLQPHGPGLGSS
Kind of data set: In vitro transporter uptake assay in hOAT3-HEK293 cells. The data set is classed as in vitro ADME. The settings on record: human, HEK293 cells transfected with human OAT3 (hOAT3-HEK293), pH 7.4.

Another data set has as its target T2, human OAT3 (hOAT3) (Homo sapiens, UniProt Q8TCC7).
T2 sequence (Q8TCC7 1-542): T1 sequence (Q8TCC7 1-542)
The data set is described as above. The data set is classed as in vitro ADME. The settings on record: for Uptake in hOAT3-HEK293 cells compared with mock cells: 100 µM.

The target of the next data set is T3, human OAT1 (hOAT1) (Homo sapiens, UniProt Q4U2R8).
T3 sequence (Q4U2R8 1-563): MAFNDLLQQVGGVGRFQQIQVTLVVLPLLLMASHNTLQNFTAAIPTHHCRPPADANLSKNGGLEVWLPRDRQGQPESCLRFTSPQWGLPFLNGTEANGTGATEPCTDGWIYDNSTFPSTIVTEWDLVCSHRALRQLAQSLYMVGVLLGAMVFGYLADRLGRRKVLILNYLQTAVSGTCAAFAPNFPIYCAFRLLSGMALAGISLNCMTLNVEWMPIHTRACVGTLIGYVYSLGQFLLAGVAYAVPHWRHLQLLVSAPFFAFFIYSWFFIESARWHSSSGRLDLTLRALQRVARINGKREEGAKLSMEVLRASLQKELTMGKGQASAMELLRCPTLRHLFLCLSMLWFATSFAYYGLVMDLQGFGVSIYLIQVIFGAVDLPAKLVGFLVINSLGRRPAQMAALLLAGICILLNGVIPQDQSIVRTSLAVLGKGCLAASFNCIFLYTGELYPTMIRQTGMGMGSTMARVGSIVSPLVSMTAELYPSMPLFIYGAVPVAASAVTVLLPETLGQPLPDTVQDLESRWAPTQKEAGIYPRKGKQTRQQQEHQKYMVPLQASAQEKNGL
Put plainly: In vitro transporter uptake assay in hOAT1-HEK293 cells.

The target in a further data set is T4, OAT1 (Homo sapiens, UniProt Q4U2R8).
T4 sequence (Q4U2R8 1-563): T3 sequence (Q4U2R8 1-563)
The data set is described as above. The settings on record: human, pH 7.4.

Substrate in data set [2]: CC1(C)C[C@@H]1C(=O)N/C(=C\CCCCSC[C@H](N)C(=O)O)C(=O)O
Put plainly: cells, lysate or membranes named. The settings on record: other: hOAT3-HEK293 cells, alone, 1 min uptake, 0–2000 µM; pH 7.4; 37.0 °C.

[3] abbreviates: of imipenem, i.v., imipenem + cilastatin, 45 mg/kg for both.
Where [4] appears, read: C0, rat, single administration (alone).
The mark [5] stands for this setting: imipenem 100 µM, cilastatin 0–2000 µM, Eadie–Hofstee plot.
The mark [6] stands for this setting: of cilastatin, i.v., cilastatin + imipenem, 45 mg/kg for both.

For `CC[N+](CC)(CC)CC` [TEA, tetraethyl ammonium], in the data set with rat kidney slices, the “Effect on the uptake of cilastatin in rat kidney slices” value (“Effect on the uptake of cilastatin” below) is reported as “not TEA inhibited” and the “Effect on the uptake of imipenem in rat kidney slices” value (from here on “Effect on the uptake of imipenem”) was “not TEA inhibited”.
Turning to `CCCN(CCC)S(=O)(=O)c1ccc(C(=O)O)cc1` [probenecid, Probenecid], in the data set on rat kidney slices, the “Effect on the uptake of cilastatin” value is given as “inhibited” and the “Effect on the uptake of imipenem” value was “inhibited”.
A word on the AUC(0-inf): it is the area under the concentration-time curve extrapolated to infinity. As a reminder, the clearance is the rate of elimination divided by the concentration. Usually half-life stands for the time in which the quantity being followed falls by half. As usually defined, the Km is the substrate concentration at which the rate is half of its maximum. In the case of `C[C@@H](O)[C@H]1C(=O)N2C(C(=O)O)=C(SCCN=CN)C[C@H]12` [Imipenem], the AUC(0-inf) is 92400 ng·h/mL in data set [1] (setting [3]) and 34800 ng·h/mL in data set [1] (single administration (alone)). Moreover, the C0 worked out at 187 ± 13.5 µg/mL in data set [1] (C0, of imipenem, i.v., imipenem + cilastatin, 45 mg/kg for both) and 129 ± 2.6 µg/mL in data set [1] (setting [4]). For the same molecule, the clearance came to 8.1 ± 0.4 mL/min/kg in data set [1] (setting [3]) and 21.6 ± 0.4 mL/min/kg in data set [1] (single administration (alone)). The half-life in data set [1] (setting [3]) was determined as 62 ± 1.4 min; in data set [1] (single administration (alone)) it was 18.5 ± 2.8 min. The “Cumulative urinary excretion over 8 h, compared with alone group” value in data set [1] (i.v.) is on record as “significantly decreased”. Moreover, the Km at 1 min on OAT3 was determined as 759 ± 62 µM; at OAT1, 631 ± 30 µM. Moreover, the “Uptake in hOAT3-HEK293 cells compared with mock cells” value at human OAT3 (hOAT3) is “significantly higher”. In addition, the Vmax at human OAT3 (hOAT3) (hOAT3, alone) came out at 0.329 ± 0.036 nmol/mg protein/min; at human OAT3 (hOAT3) (hOAT3-HEK293 cells, alone, 1 min uptake, 0–2000 µM) it was 0.329 ± 0.036 nmol/mg protein/1 min; at human OAT1 (hOAT1) (hOAT1, alone), 0.223 ± 0.011 nmol/mg protein/min; on human OAT1 (hOAT1) (hOAT1-HEK293 cells, alone, 1 min uptake, 0–2000 µM) it was 0.223 ± 0.011 nmol/mg protein/1 min. Further, the “Inhibitory type on the uptake of cilastatin in hOAT3-HEK293 cells” value at human OAT3 (hOAT3) (setting [5]) is reported as “competitive”. The “Uptake in hOAT1-HEK293 cells compared with mock cells” value on human OAT1 (hOAT1) (100 µM) is “significantly higher”. Also, on human OAT1 (hOAT1) (setting [5]), the “Inhibitory type on the uptake of cilastatin in hOAT1-HEK293 cells” value is recorded as “competitive”. For the same molecule, the “Uptake in rat kidney slices at 37 °C compared with 4 °C” value with rat kidney slices is “significantly higher”.
Consider `CC1(C)S[C@@H]2[C@H](NC(=O)Cc3ccccc3)C(=O)N2[C@H]1C(=O)O` [PCG, benzylpenicillin], for which the “Effect on uptake of imipenem and cilastatin in hOAT3-HEK293 cells” value on human OAT3 (hOAT3) (PCG 200 µM, imipenem 100 µM, cilastatin 100 µM) is on record as “significantly inhibited”. Moreover, in the data set with rat kidney slices, the “Effect on the uptake of cilastatin” value is “inhibited” and the “Effect on the uptake of imipenem” value is listed as “inhibited”.
Turning to `CC1(C)C[C@@H]1C(=O)N/C(=C\CCCCSC[C@H](N)C(=O)O)C(=O)O` [Cilastatin], in data set [1] (setting [6]), the AUC(0-inf) is 84700 ng·h/mL, the clearance stood at 8.9 ± 0.3 mL/min/kg and the half-life stood at 28.6 ± 4 min. In data set [1] (single administration (alone)), the AUC(0-inf) was 56500 ng·h/mL, the clearance worked out at 13.3 ± 0.1 mL/min/kg and the half-life stood at 19.7 ± 0.8 min. In addition, in data set [1] (C0, of cilastatin, i.v., cilastatin + imipenem, 45 mg/kg for both), the C0 was found to be 175 ± 11.1 µg/mL. The molecule further yielded a C0 in data set [1] (setting [4]) of 156 ± 3.6 µg/mL. For the same molecule, the “Cumulative urinary excretion over 8 h, compared with alone group” value in data set [1] (i.v.) was “significantly decreased”. In addition, in data set [1] (i.v., co-administered with imipenem, 45 mg/kg for both), the “Cumulative urinary excretion of cilastatin, compared with cilastatin alone group” value is “decreased significantly”. In addition, at human OAT3 (hOAT3), the “Uptake in hOAT3-HEK293 cells compared with mock cells” value is listed as “significantly higher”. Besides, in the data set on rat kidney slices, the “Uptake in rat kidney slices at 37 °C compared with 4 °C” value is “significantly higher”.
For the molecule `Nc1ccc(C(=O)NCC(=O)O)cc1` [PAH, p-aminohippurate], in the data set with rat kidney slices, the “Effect on the uptake of cilastatin” value was “inhibited” and the “Effect on the uptake of imipenem” value is “inhibited”.

B1: human OAT3 (hOAT3) (Homo sapiens) (protein)
chain: T1 sequence (Q8TCC7 1-542)
Regarding B1, in data set [2], the Km amounted to 238 ± 2 µM and the Vmax came out at 0.000751 µmol/min/mg.

Values taken from PMC7193450 (Asian Journal of Pharmaceutical Sciences, 2018).
